Common to all, as to format: biochemical
Experiment [1] deals with T1, epidermal growth factor receptor kinase (EGF-R Kinase, recombinant enzyme; His-tagged cytoplasmic domain of EGFR) (Homo sapiens, UniProt P00533).
T1 construct: EGFR cDNA encoding amino acids 645 - 1186 preceded by Met-Ala-(His)6; Met-Ala-(His)6 (N); made in house; host or cells: Sf9 insect cells, recombinant baculovirus vHcEGFR52
Nature of the experiment: Inhibition of Epidermal Growth Factor Receptor Kinase (EGF-R) using recombinant enzyme, RR-SRC peptide phosphorylation, 33P-ATP. Particulars: for inhibition at 0.5 µM: read-out: %Inh @ 0.5 µM; for IC50: recombinant enzyme, 90 min at room temperature. As for the experimental part:
Representative test compounds were evaluated for their ability to inhibit the phosphorylation of the tyrosine residue of a peptide substrate catalyzed by the enzyme epidermal growth factor receptor kinase. The peptide substrate (RR-SRC) has the sequence arg-arg-leu-ile-glu-asp-ala-glu-tyr-ala-ala-arg-gly. The enzyme used in this test procedure is the His-tagged cytoplasmic domain of EGFR. A recombinant baculovirus (vHcEGFR52) was constructed containing the EGFR cDNA encoding amino acids 645 - 1186 preceded by Met-Ala-(His)6. Sf9 cells in 100 mm plates were infected at an moi of 10 pfu/cell and cells were harvested 48 h post infection. A cytoplasmic extract was prepared using 1% Triton X-100 and applied to Ni-NTA column. After washing the column with 20 mM imidazole, HcEGFR was eluted with 250 mM imidazole (in 50 mM Na2HPO4, pH 8.0, 300 mM NaCl). Fractions collected were dialyzed against 10 mM HEPES, pH 7.0, 50 mM NaCl, 10% glycerol, lug/mL antipain and leupeptin and 0.1 mM Pefabloc SC. The protein was frozen in dry ice/methanol and stored -70°C.
Test compounds were made into 10 mg/mL stock solutions in 100% dimethylsulfoxide (DMSO). Prior to experiment, stock solutions were diluted to 500 uM with 100% DMSO and then serially diluted to the desired concentration with HEPES buffer (30 mM HEPES pH 7.4).
For the enzyme reaction, 10 uL of each inhibitor (at various concentrations) were added to each well of a 96-well plate. To this was added 3 uL of enzyme (1:10 dilution in 10mM HEPES, pH 7.4 for final cone. of 1:120). This was allowed to sit for 10 min on ice and was followed by the addition of 5 ul peptide (80 uM final cone.), 10ul of 4X Buffer (Table A), 0.25 uL ^33P-ATP and 12 uL H2O. The reaction was allowed to run for 90 min at room temperature and was followed by spotting the entire volume on to precut P81 filter papers. The filter discs were washed 2X with 0.5% phosphoric acid and radioactivity was measured using a liquid scintillation counter.
The inhibition data for representative compounds of the invention are shown below in TABLE 1. […] The % inhibition of the test compound was determined for at least three different concentrations and the IC50 value was evaluated from the dose response curve. […] CPM(control) is in units of counts per minute and was a number expressing the amount of radiolabled ATP (γ-^33P) incorporated into the RR-SRC peptide substrate by the enzyme after 90 minutes at room temperature in the absence of test compound as measured by liquid scintillation counting. The CPM values were corrected for the background counts produced by ATP in the absence of the enzymatic reaction. […]

Experiment [2] addresses Epithelial Cell Kinase (ECK) (Homo sapiens, UniProt P29317). Nature of the experiment: Inhibition of Epithelial Cell Kinase (ECK), immobilized biotinylated peptide, HRP anti-phosphotyrosine readout. The following applies: IC50, substrate phosphorylation. Here is the method: In this standard pharmacological test procedure, a biotinylated peptide substrate is first immobilized on neutravidin-coated microtiter plates. The test drug, the Epithelial Cell Kinase (ECK), Mg^++, sodium vanadate (a protein tyrosine phosphatase inhibitor), and an appropriate buffer to maintain pH (7.2) are then added to the immobilized substrate-containing microtiter wells. ATP is then added to initiate phosphorylation. After incubation, the assay plates are washed with a suitable buffer leaving behind phosphorylated peptide which is exposed to horse radish peroxidase (HRP)-conjugated anti-phosphotyrosine monoclonal antibody. The antibody-treated plates are washed again and the HRP activity in individual wells is quantified as a reflection of degree of substrate phosphorylation. […] Multiple entries for a given compound indication it was tested multiple times.

Experiment [3] deals with T2, Kinase insert Domain containing Receptor (KDR: the catalytic domain of the VEGF receptor) (Homo sapiens, UniProt P35968).
T2 construct: KDR: the catalytic domain of the VEGF receptor
Nature of the experiment: Inhibition of Kinase insert Domain containing Receptor (KDR), radioactive phosphorylation of Glu:Tyr copolymer. The following applies: IC50, substrate phosphorylation. Here is the method:
In this standard pharmacological test procedure, KDR protein is mixed, in the presence or absence of a inhibitor compound, with a substrate peptide to be phosphorylated (a copolymer of glutamic acid and tyrosine, E:Y :: 4:1) and other cofactors such as Mg^++ and sodium vanadate (a protein tyrosine phosphatase inhibitor) in an appropriate buffer to maintain pH (7.2). ATP and a radioactive tracer (either P^32- or P^33- labeled ATP) is then add to initiate phosphorylation. After incubation, the radioactive phosphate associated with the acid-insoluble fraction of the assay mixture is then quantified as reflection of substrate phosphorylation. […] Multiple entries for a given compound indication it was tested multiple times.

Experiment [4] addresses Recombinant human MEK 1 (MAPKK) / recombinant human ERK2 (MAPK) (Mek-Erk) (Homo sapiens, UniProt P28482+Q02750). Nature of the experiment: Mitogen Activated Protein Kinase (MAPK) assay, two component coupled Mek-Erk test.
Procedure: To evaluate inhibitors of the MAP (mitogen activated protein) kinase a two component coupled standard pharmacological test procedure, which measures phosphorylation of a serine/threonine residue in an appropriate sequence in the substrate in the presence and absence of a putative inhibitor, was used. Recombinant human MEK 1 (MAPKK) was first used to activate recombinant human ERK2 (MAPK) and the activated MAPK (ERK) was incubated with substrate (MBP peptide or MYC peptide) in the presence of ATP, Mg^+2 and radiolabeled ^33P ATP. The phosphorylated peptide was captured on a P 81 phosphocellulose filter (paper filter or embedded in microtiter plate) washed and counted by scintillation methods.
The peptide substrates used in the assay are MBP, peptide substrate ([sequence]), or synthetic Myc substrate, ([sequence]•5 TFA. The recombinant enzymes used were prepared as GST fusion proteins of human ERK 2 and human MEK 1. Inhibitor samples were prepared as 10X stocks in 10% DMSO and an appropriate aliquot was used to deliver either 10 ug/ml for a single point screening dose or 100, 10, 1, and 0.1 uM final concentration for a dose response curve. Final DMSO concentrations were less than or equal to 1%.
The reaction was run as follows in 50 mM Tris kinase buffer, pH 7.4 in a reaction volume of 50 ul. The appropriate volume of kinase buffer and inhibitor sample was added to the tube. Appropriate dilution of enzyme was delivered to give 2-5 ug recombinant MAPK (Erk ) per tube. The inhibitor was incubated with MAPK (Erk) for 30 min at 0° C. Recombinant Mek (MAPKK) ( 0.5-2.5 ug) or fully activated Mek (0.05-0.1 units) was added to activate the Erk and incubated for 30 min at 30° C. Then substrate and gamma ^33P ATP was were added to give a final concentration of 0.5- 1 mM MBPP or 250-500 uM Myc; 0.2-0.5 uCi gamma P 33 ATP/tube; 50 µM ATP final concentration. Samples were incubated at 30°C for 30 minutes and the reaction was stopped by adding 25 µl of ice cold 10 %TCA .After samples were chilled on ice for 30 min, 20 µl of sample was transferred onto P 81 phosphocellulose filter paper or appropriate MTP with embedded P 81 filter. Filter papers or MTP were washed 2 times with a large volume of 1% acetic acid, then 2 times with water. The filters or MTP were briefly air dried before addition of scintillant and samples were counted in the appropriate scintillation counter set up for reading ^33P isotope.
The raw data was captured as cpm. Sample replicates were averaged and corrected for background count. Mean cpm data was tabulated by group and % inhibition by a test compound was calculated as (corrected cpm control- corrected. cpm sample/control) X 100 = % inhibition.

Here are results for 16 compounds from patent EP1117659B1, “SUBSTITUTED 3-CYANOQUINOLINES AS PROTEIN TYROSINE KINASES INHIBITORS” (Wyeth Holdings Corporation, priority 1998, dated 2000).

“And” between values parts separate entries of the source, which are not always exact repeats. Equal entries are not always repeated. Structures can show the parent of a compound that is named as a salt. Where two headings read alike, the source gives them in different places.

Sequence of Epithelial Cell Kinase (ECK) (P29317 24-976, species assumed): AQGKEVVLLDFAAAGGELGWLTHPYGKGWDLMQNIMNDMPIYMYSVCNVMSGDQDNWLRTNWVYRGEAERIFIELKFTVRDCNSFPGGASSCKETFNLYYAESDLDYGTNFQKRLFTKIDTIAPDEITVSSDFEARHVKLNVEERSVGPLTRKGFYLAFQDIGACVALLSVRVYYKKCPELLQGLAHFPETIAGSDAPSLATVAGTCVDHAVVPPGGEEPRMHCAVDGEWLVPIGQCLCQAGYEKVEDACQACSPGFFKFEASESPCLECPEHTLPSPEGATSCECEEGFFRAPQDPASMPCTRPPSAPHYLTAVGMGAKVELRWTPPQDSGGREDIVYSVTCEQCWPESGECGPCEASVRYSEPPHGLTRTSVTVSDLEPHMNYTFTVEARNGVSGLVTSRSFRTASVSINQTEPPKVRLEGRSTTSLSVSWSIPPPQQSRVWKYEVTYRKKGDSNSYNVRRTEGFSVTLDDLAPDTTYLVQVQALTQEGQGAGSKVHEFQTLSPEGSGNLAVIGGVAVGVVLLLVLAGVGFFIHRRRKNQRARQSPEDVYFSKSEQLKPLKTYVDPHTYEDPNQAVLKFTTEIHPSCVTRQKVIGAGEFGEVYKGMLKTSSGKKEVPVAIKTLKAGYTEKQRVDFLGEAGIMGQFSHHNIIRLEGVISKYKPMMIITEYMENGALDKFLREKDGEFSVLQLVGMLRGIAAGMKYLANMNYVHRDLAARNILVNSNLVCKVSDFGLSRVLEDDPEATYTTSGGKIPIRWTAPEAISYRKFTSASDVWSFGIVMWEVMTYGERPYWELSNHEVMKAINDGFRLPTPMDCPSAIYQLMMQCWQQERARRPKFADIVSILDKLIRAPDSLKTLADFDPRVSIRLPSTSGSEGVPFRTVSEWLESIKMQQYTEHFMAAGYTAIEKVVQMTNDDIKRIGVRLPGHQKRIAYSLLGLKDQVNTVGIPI
Sequence of Recombinant human MEK 1 (MAPKK) / recombinant human ERK2 (MAPK) (Mek-Erk) (P28482 2-360): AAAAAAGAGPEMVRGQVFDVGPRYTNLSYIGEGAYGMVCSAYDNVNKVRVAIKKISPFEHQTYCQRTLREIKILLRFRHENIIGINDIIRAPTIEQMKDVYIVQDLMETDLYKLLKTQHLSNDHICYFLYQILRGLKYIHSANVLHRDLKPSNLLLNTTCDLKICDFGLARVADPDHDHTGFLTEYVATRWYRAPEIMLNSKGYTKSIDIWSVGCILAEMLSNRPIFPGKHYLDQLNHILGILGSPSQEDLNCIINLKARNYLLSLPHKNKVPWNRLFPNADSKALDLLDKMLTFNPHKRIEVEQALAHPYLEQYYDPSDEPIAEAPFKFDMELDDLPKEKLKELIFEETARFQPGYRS
Sequence of Recombinant human MEK 1 (MAPKK) / recombinant human ERK2 (MAPK) (Mek-Erk) (Q02750 whole entry): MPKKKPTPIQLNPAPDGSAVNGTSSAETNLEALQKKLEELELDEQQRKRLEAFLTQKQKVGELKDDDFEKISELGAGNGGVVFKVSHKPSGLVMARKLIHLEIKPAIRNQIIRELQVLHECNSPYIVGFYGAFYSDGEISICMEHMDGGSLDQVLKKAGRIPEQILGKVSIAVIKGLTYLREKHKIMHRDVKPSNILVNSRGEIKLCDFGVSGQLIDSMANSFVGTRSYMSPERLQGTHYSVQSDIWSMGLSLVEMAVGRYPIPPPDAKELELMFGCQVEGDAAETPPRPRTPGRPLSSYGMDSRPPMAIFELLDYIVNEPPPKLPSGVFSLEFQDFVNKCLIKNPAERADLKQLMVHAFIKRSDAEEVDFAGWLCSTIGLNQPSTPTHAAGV
T2 sequence (P35968 834-1162 limits assumed): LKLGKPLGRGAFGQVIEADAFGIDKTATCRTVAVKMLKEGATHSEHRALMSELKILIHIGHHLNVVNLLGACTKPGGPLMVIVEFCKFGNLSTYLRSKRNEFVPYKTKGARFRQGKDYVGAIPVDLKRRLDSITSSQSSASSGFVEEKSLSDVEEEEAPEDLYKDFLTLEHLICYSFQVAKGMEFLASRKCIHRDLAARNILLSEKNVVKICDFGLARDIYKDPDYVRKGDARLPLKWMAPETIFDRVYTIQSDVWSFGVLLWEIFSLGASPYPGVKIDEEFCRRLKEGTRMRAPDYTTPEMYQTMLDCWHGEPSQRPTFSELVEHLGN
T1 sequence (P00533 669-1210): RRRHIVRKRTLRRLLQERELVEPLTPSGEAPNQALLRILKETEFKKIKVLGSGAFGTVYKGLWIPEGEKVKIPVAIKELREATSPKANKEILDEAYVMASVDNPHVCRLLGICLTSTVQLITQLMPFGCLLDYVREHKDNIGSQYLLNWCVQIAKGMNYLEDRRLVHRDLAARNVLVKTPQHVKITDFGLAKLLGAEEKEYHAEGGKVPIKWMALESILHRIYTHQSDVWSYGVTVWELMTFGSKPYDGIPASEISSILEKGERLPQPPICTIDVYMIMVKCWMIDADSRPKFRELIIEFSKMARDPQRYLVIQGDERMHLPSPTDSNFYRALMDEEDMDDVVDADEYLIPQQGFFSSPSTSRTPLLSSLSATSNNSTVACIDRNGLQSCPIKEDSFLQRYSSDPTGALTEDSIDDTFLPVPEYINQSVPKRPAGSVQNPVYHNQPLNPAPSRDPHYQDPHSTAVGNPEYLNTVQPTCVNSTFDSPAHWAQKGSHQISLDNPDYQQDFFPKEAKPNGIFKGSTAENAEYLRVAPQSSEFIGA

Turning to `CCOc1cc2ncc(C#N)c(Nc3ccc4ncsc4c3)c2cc1OCC` [Example 97, 4-(Benzothiazol-6-ylamino)-6,7-diethoxy-quinoline-3-carbonitrile HCl Salt], the inhibition at 0.5 µM in experiment [1] came to 7%. For the same compound, the IC50 was > 10 µM in experiment [1], > 2.56 µM in experiment [2], > 2.56 µM in experiment [3] and 55 µM in experiment [4] (read-out: Mek-Erk µM).
For the compound `COc1cc2ncc(C#N)c(Nc3ccc4c(C)cc(=O)[nH]c4c3)c2cc1OC` [Example 129, 6,7-Dimethoxy-4-(4-methyl-2-oxo-1,2-dihydro-quinolin-7-ylamino)-quinoline-3-carbonitrile], the inhibition at 0.5 µM in experiment [1] was 6.7%. Further, the IC50 was > 1 µM in experiment [1], > 25.9 µM in experiment [2], > 25.9 µM in experiment [3] and > 100 µM in experiment [4] (read-out: Mek-Erk).
Consider `COc1cc2ncc(C#N)c(Nc3ccc4sc(C)nc4c3)c2cc1OC` [Example 130, 6,7-Dimethoxy-4-(2-methyl-benzothiazol-5-ylamino)-quinoline-3-carbonitrile], for which the inhibition at 0.5 µM in experiment [1] was determined as 5%. Further, the IC50 in experiment [1] is > 1 µM; in experiment [2] it was > 26.6 µM; in experiment [3], > 26.6 µM; in experiment [4] (read-out: Mek-Erk) it was > 100 µM.
In the case of `COc1cc2ncc(C#N)c(Nc3ccc4[nH]c(=O)sc4c3)c2cc1OC` [Example 131, 6,7-Dimethoxy-4-(2-oxo-2,3-dihydro-benzothiazol-6-ylamino)-quinoline-3-carbonitrile], the inhibition at 0.5 µM in experiment [1] worked out at 0%. The IC50 in experiment [1] is > 1 µM; in experiment [2], > 26.4 µM; in experiment [3], > 26.4 µM; in experiment [4] (read-out: Mek-Erk) it was > 100 µM.
For `COc1cc2ncc(C#N)c(Nc3cccc4ncccc34)c2cc1OC` [Example 132, 6,7-Dimethoxy-4-(quinolin-5-ylamino)-quinoline-3-carbonitrile], in experiment [1], the inhibition at 0.5 µM is 0%. Further, the IC50 in experiment [1] was > 1 µM; in experiment [2], > 28.1 µM; in experiment [3], > 28.1 µM; in experiment [4] (read-out: Mek-Erk), 90 µM.
As for `COc1cc2ncc(C#N)c(Nc3cccc4cnccc34)c2cc1OC` [Example 133, 4-(Isoquinolin-5-ylamino)-6,7-dimethoxy-quinoline-3-carbonitrile], the inhibition at 0.5 µM in experiment [1] stood at 0%. For the same compound, the IC50 in experiment [1] was > 1 µM; in experiment [2], > 28.1 µM; in experiment [3] it was > 28.1 µM; in experiment [4] (read-out: Mek-Erk) it was 90 µM.
Turning to `COc1cc2ncc(C#N)c(Nc3cccc4cccnc34)c2cc1OC` [Example 134, 6,7-Dimethoxy-4-(quinolin-8-ylamino)-quinoline-3-carbonitrile], the inhibition at 0.5 µM in experiment [1] is 35%. The IC50 in experiment [1] is > 1 µM; in experiment [2], > 28.1 µM; in experiment [3], > 28.1 µM; in experiment [4] (read-out: Mek-Erk), > 100 µM.
As to `COc1cc2ncc(C#N)c(Nc3ccc(O)c4ncccc34)c2cc1OC` [Example 135, 4-(8-Hydroxy-quinolin-5-ylamino)-6,7-dimethoxy-quinoline-3-carbonitrile], in experiment [1], the inhibition at 0.5 µM was found to be 0%. The IC50 in experiment [1] is > 1 µM; in experiment [2] it was 0.537 µM; in experiment [3], 26.9 µM; in experiment [4] (read-out: Mek-Erk) it was > 100 µM.
`COc1ccc2ncc(C#N)c(Nc3ccc4cn[nH]c4c3)c2c1` [Example 141, 4-(1H -Indazol 6-ylamino)-6-methoxy-quinoline-3-carbonitrile]: the inhibition at 0.5 µM in experiment [1] is 5.5%. Also, the IC50 in experiment [1] was > 1 µM; in experiment [2] it was > 31.7 µM; in experiment [3] it was 63.4 µM; in experiment [4] (read-out: Mek-Erk) it was 1.1 µM and 2 µM.
Take `COc1ccc2ncc(C#N)c(Nc3ccc4nn[nH]c4c3)c2c1` [Example 142, 4-(3H -Benzotriazol-5-ylamino)-6-methoxy-quinoline-3-carbonitrile]: the inhibition at 0.5 µM in experiment [1] was 24%. Besides, the IC50 is > 1 µM in experiment [1], > 31.6 µM in experiment [2], 94.8 µM in experiment [3] and 30 µM in experiment [4] (read-out: Mek-Erk).
On to `COc1ccc2c(Nc3ccc4cn[nH]c4c3)c(C#N)cnc2c1` [Example 143, 4-(1H-Indazol-6-ylamino)-7-methoxy-quinoline-3-carbonitrile], for which the IC50 in experiment [2] is > 31.7 µM; in experiment [3], 47.6 µM and > 3.17 µM; in experiment [4] (read-out: Mek-Erk), 2 µM.
On to `COc1ccc2c(Nc3ccc4nn[nH]c4c3)c(C#N)cnc2c1` [Example 144, 4-(3H -benzotriazol-5-ylamino)-7-methoxy-quinoline-3-carbinitile], for which the inhibition at 0.5 µM in experiment [1] stood at 14%. For the same compound, the IC50 is > 1 µM in experiment [1]; > 31.6 µM in experiment [2]; > 94.8 µM and 94.8 µM in experiment [3]; > 100 µM in experiment [4] (read-out: Mek-Erk µM).
With `COc1cccc2c(Nc3ccc4cn[nH]c4c3)c(C#N)cnc12` [Example 148, 4-(1H -Indazol-6-ylamino)-8-methoxy-quinoline-3-carbonitrile], in experiment [1], the inhibition at 0.5 µM was found to be 11%. In addition, the IC50 was > 1 µM in experiment [1], > 63.4 µM in experiment [2], > 95.1 µM in experiment [3] and > 100 µM in experiment [4] (read-out: Mek-Erk).
Regarding `COc1cccc2c(Nc3ccc4nn[nH]c4c3)c(C#N)cnc12` [Example 149, 4-(3H -benzotriazol-5-ylamino)-8-methoxy-quinoline-3-carbonitrile], the inhibition at 0.5 µM in experiment [1] stood at 9%. Besides, the IC50 in experiment [1] is > 1 µM; in experiment [2], > 31.6 µM; in experiment [3], > 94.8 µM; in experiment [4] (read-out: Mek-Erk µM), > 100 µM.
For the compound `COc1cc2ncc(C#N)c(Nc3ccc4ncccc4c3)c2cc1OC` [Example 153, 6,7-Dimethoxy-4-(quinoline-6-ylamino)-quinoline-3-carbonitrile], the inhibition at 0.5 µM in experiment [1] was 14%. Moreover, the IC50 is > 1 µM in experiment [1], > 28.1 µM in experiment [2], > 28.1 µM in experiment [3] and > 100 µM in experiment [4] (read-out: Mek-Erk).
`COc1cc2c(Nc3ccc4nn[nH]c4c3)c(C#N)cnc2c(OC)c1OC` [Example 156, 4-(3H-Benzotriazol-5-ylamino)-6,7,8-Trimethoxy-quinoline-3-carbonitrile]: in experiment [1], the inhibition at 0.5 µM is 34%. For the same compound, the IC50 in experiment [1] was > 1 µM; in experiment [2], > 26.6 µM; in experiment [3], > 79.7 µM; in experiment [4] (read-out: Mek-Erk µM), 35 µM.
